Measured values reported in paper PMC8155022 (Scientific Reports, 2021).

Legend:
[1] = target: T1, ERβ (Homo sapiens, UniProt Q92731); assay: nuclear receptor cellular GAL4 reporter assay; assay type: cell-based; conditions: agonist and antagonist mode; read-out: potency in agonist and antagonist mode
T1 construct: expressed in transfected cells

[2] = target: T2, PXR (Homo sapiens, UniProt O75469); assay: nuclear receptor cellular GAL4 reporter assay; assay type: cell-based
T2 construct: expressed in transfected cells
T2 sequence (O75469 whole entry, the tested form may be a part): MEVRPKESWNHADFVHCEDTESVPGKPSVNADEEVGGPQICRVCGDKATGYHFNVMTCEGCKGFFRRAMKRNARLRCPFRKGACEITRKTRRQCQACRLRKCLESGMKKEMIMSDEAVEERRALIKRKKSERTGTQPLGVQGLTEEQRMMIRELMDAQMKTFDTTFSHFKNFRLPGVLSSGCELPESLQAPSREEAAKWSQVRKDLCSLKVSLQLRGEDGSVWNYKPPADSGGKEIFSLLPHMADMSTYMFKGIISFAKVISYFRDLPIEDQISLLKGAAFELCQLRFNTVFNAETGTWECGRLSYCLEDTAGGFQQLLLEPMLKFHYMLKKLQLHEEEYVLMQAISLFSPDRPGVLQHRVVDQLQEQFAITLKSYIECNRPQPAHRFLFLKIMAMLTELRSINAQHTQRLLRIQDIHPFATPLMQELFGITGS

[3] = target: T3, Ret(h) (Homo sapiens, UniProt P07949); assay: Kinase panel; assay type: biochemical
T3 construct: purchased Cerep (receptors, ion channels, transporters); Eurofins Panlabs (kinases)
Description: (§1) Kinase selectivity was conducted by Eurofins Panlabs Inc (St Charles, MO).

[4] = target: T4, PKBα(h) (Homo sapiens, UniProt P31749); assay: Kinase panel; assay type: biochemical
T4 construct: purchased Cerep (receptors, ion channels, transporters); Eurofins Panlabs (kinases)
Description: as §1

[5] = modeled plasma exposure in the CIA model; assay type: in vivo, mouse
[6] = tested on: dogs; assay: chronic dosing up to 9 months in dogs; assay type: in vivo; conditions: dog, data not shown, reversible
Source text: This is consistent with the reported physiological role of RORγt as a critical molecule in controlling the survival of thymocytes[7],[66]. JNJ-61803534-induced thymocyte apoptosis was reversible and was deemed non-adverse alterations.

[7] = target: hNav1.5 (Homo sapiens, UniProt Q14524); assay: follow-up functional study; assay type: cell-based; conditions: read-out: IC50 in follow-up functional studies
[8] = target: T5, M2 (h) (Homo sapiens, UniProt P08172); assay: Cerep panel; assay type: binding
T5 construct: purchased Cerep (receptors, ion channels, transporters); Eurofins Panlabs (kinases)
T5 sequence (P08172 whole entry): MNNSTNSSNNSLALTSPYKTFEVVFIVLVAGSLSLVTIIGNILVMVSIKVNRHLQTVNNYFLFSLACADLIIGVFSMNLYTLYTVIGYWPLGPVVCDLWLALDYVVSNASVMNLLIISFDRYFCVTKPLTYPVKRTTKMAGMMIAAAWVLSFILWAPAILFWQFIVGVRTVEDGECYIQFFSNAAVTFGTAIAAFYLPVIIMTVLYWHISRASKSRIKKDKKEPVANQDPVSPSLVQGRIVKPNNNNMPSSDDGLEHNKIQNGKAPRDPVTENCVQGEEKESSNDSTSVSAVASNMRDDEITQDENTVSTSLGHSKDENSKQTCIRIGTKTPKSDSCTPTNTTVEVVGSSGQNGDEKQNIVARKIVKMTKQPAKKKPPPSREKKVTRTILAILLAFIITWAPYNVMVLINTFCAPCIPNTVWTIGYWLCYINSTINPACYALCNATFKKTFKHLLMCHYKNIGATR
Description: (§2) A panel of 52 different receptors, ion channels and transporters was tested by Cerep, Inc. (Redmond, WA).

[9] = target: T6, A3 (Homo sapiens, UniProt P0DMS8); assay: GPCR panel, cAMP or calcium FLIPR assays; assay type: cell-based
T6 sequence (P0DMS8 1-318): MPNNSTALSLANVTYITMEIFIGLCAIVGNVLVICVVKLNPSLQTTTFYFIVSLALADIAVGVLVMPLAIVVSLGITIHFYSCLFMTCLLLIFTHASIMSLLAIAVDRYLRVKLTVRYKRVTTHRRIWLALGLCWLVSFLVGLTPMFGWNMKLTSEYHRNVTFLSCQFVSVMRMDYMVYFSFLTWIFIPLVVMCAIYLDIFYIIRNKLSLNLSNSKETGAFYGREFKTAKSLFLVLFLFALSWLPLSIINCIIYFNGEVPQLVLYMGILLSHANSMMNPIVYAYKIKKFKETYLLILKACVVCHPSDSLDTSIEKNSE
Description: (§3) 28 GPCRs were evaluated through cAMP or calcium FLIPR assays[67].

[10] = target: T7, ORL1 (h) (NOP) (Homo sapiens, UniProt P41146); assay: Cerep panel; assay type: binding
T7 construct: purchased Cerep (receptors, ion channels, transporters); Eurofins Panlabs (kinases)
T7 sequence (P41146 whole entry): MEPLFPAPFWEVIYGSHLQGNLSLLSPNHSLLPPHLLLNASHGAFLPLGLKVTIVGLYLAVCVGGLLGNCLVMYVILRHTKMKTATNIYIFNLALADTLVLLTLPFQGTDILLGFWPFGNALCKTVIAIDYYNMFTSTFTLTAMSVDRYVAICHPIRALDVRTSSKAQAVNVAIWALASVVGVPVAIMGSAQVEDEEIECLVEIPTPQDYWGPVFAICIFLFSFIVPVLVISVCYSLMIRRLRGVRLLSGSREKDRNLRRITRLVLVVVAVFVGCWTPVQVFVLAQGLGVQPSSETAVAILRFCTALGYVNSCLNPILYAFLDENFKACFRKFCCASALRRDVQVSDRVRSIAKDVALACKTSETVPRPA
Description: as §2

[11] = target: T8, RARα (Homo sapiens, UniProt P10276); assay: nuclear receptor cellular GAL4 reporter assay; assay type: cell-based; conditions: agonist and antagonist mode; read-out: potency in agonist and antagonist mode
T8 construct: expressed in transfected cells

[12] = target: T9, NEK2(h) (Homo sapiens, UniProt P51955); assay: Kinase panel; assay type: biochemical
T9 construct: purchased Cerep (receptors, ion channels, transporters); Eurofins Panlabs (kinases)
T9 sequence (P51955 whole entry): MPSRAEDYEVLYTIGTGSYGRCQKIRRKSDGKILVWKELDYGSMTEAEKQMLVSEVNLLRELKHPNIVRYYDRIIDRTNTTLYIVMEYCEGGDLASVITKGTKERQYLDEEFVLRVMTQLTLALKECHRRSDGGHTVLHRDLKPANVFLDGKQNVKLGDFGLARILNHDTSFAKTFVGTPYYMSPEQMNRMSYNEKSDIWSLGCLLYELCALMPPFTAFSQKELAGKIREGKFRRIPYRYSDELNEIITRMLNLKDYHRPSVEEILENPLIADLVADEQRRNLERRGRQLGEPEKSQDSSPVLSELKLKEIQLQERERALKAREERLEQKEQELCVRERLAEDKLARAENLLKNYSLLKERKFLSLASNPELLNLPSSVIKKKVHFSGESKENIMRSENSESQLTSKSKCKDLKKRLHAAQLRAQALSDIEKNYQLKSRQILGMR
Description: as §1

[13] = target: M3 (Homo sapiens, UniProt P20309); assay: GPCR panel, cAMP or calcium FLIPR assays; assay type: cell-based
Chain of M3 (P20309 whole entry): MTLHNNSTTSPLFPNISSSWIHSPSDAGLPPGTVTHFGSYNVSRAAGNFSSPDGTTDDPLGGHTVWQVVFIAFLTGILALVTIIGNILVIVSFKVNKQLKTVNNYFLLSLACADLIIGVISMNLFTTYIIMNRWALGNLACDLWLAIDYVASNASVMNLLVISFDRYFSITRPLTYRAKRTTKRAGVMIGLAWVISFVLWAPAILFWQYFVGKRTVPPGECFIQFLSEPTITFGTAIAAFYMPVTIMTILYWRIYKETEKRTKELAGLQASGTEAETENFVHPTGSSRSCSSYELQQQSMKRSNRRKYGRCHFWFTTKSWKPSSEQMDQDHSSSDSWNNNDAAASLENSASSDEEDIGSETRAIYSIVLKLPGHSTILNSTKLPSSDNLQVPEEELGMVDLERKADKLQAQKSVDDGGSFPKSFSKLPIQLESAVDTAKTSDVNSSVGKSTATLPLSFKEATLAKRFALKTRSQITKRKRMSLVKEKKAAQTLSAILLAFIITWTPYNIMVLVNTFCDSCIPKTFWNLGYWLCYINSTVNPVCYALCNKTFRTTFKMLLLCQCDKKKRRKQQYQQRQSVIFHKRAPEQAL
Description: as §3

[14] = target: ADRB2 (Homo sapiens, UniProt P07550); assay: GPCR panel, cAMP or calcium FLIPR assays; assay type: cell-based
Chain of ADRB2 (P07550 whole entry, species assumed): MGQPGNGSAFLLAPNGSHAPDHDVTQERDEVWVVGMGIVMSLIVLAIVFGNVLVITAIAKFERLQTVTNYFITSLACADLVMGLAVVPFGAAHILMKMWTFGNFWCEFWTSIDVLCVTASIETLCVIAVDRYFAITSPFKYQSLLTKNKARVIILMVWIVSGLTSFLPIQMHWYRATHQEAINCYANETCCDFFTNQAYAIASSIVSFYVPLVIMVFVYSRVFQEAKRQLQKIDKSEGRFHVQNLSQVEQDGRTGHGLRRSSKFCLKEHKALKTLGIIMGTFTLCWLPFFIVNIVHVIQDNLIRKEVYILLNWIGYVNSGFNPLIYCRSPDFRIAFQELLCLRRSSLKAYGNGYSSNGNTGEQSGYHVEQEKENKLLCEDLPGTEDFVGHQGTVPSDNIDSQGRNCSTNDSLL
Description: as §3

[15] = target: T10, Flt3(h) (Homo sapiens, UniProt P36888); assay: Kinase panel; assay type: biochemical
T10 construct: purchased Cerep (receptors, ion channels, transporters); Eurofins Panlabs (kinases)
Description: as §1

[16] = target: T11, Pim-2(h) (Homo sapiens, UniProt Q9P1W9); assay: Kinase panel; assay type: biochemical
T11 construct: purchased Cerep (receptors, ion channels, transporters); Eurofins Panlabs (kinases)
T11 sequence (Q9P1W9 whole entry): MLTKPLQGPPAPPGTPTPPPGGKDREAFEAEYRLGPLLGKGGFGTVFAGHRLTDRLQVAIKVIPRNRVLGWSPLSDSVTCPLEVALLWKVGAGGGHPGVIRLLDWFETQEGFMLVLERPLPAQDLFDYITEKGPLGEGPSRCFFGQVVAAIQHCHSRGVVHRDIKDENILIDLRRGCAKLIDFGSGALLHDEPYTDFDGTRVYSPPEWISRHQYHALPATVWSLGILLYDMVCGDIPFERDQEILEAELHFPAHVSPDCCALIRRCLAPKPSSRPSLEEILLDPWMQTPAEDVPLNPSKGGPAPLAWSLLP
Description: as §1

[17] = target: T12, PPARγ (Homo sapiens, UniProt P37231); assay: nuclear receptor cellular GAL4 reporter assay; assay type: cell-based; conditions: agonist and antagonist mode; read-out: potency in agonist and antagonist mode
T12 construct: expressed in transfected cells

[18] = target: T13, 5-HT7 (h) (Homo sapiens, UniProt P34969); assay: Cerep panel; assay type: binding
T13 construct: purchased Cerep (receptors, ion channels, transporters); Eurofins Panlabs (kinases)
T13 sequence (P34969 whole entry): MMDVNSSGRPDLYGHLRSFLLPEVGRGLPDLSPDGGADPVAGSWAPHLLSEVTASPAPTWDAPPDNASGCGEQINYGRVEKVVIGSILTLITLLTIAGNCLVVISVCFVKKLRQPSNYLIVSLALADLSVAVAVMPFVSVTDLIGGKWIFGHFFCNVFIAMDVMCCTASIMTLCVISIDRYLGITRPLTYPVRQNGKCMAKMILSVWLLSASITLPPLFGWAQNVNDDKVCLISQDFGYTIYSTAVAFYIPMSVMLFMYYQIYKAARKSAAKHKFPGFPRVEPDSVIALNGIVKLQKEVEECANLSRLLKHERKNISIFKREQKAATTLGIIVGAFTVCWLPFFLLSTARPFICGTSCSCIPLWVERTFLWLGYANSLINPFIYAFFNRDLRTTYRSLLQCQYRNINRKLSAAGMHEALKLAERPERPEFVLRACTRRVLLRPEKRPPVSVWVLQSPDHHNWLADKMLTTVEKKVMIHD
Description: as §2

[19] = tested on: mouse collagen-induced arthritis (CIA) model; assay: mouse collagen-induced arthritis (CIA) model; assay type: in vivo; conditions: for reduction of clinical arthritis scores (AUC) vs vehicle, efficacy % inhibition: day 21-35
Description: On Day 0, mice (female DBA/1Lacj, Jackson Laboratories; 8–10 weeks) were immunized at the base of the tail with an emulsion containing equal amounts of Chick Type II Collagen (Chondrex, Redmond, WA) and Complete-Freund’s adjuvant (CFA, Chondrex), 100 µg each per mouse, and administered a second immunization boost on day 21. On this day, animals were examined for clinical arthritis scores and randomized into treatment groups. […] Clinical arthritis scores were evaluated from day 21 to 34, and animals were euthanized under CO2 on day 35. Both hind paws from each animal were collected and fixed in 10% neutral buffered formalin for histopathology.

[20] = target: T14, 5HT2B (Homo sapiens, UniProt P41595); assay: GPCR panel, cAMP or calcium FLIPR assays; assay type: cell-based
Target sequence in this assay (P41595 whole entry, species assumed): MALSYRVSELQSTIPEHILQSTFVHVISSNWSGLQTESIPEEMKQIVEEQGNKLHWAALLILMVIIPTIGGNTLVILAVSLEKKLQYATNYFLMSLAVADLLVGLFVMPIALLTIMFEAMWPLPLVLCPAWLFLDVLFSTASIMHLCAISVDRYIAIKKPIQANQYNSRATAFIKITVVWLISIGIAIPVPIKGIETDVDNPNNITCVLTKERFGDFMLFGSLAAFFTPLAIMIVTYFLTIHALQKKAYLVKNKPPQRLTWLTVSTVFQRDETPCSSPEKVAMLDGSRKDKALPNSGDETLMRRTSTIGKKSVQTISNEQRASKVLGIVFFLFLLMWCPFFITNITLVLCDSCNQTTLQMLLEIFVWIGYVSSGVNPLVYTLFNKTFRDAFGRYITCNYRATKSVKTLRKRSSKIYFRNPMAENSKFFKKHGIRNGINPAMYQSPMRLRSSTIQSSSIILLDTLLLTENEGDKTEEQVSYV
Description: as §3

[21] = target: T14, 5HT2B; assay: Cerep panel; assay type: binding; set-up: purchased Cerep (receptors, ion channels, transporters); Eurofins Panlabs (kinases)
Target sequence in this assay (P41595 whole entry): as the sequence (P41595 whole entry, species assumed) above
Description: as §2

[22] = target: H1 (Homo sapiens, UniProt P35367); assay: GPCR panel, cAMP or calcium FLIPR assays; assay type: cell-based
Description: as §3

[23] = target: V1A (Homo sapiens, UniProt P37288); assay: GPCR panel, cAMP or calcium FLIPR assays; assay type: cell-based
Chain of V1A (P37288 whole entry, the tested form may be a part): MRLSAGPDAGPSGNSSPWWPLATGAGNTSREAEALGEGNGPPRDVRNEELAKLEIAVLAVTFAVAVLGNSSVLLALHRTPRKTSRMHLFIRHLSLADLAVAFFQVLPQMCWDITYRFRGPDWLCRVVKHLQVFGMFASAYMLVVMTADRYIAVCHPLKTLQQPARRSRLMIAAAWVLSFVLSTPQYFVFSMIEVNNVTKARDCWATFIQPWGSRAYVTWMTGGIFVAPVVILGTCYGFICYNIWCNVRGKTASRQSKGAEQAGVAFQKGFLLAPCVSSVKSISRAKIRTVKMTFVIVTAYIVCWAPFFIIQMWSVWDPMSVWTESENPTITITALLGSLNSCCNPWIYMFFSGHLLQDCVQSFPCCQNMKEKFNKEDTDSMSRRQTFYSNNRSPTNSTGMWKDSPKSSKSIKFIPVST
Description: 28 GPCRs were evaluated through cAMP or calcium FLIPR assays[67]. A panel of 52 different receptors, ion channels and transporters was tested by Cerep, Inc. (Redmond, WA). Kinase selectivity was conducted by Eurofins Panlabs Inc (St Charles, MO).

[24] = target: T15, GR (Homo sapiens, UniProt P04150); assay: nuclear receptor cellular GAL4 reporter assay; assay type: cell-based; conditions: agonist and antagonist mode; read-out: potency in agonist and antagonist mode
T15 construct: expressed in transfected cells

[25] = target: ADRA2B - AG (Homo sapiens, UniProt P18089); assay: GPCR panel, cAMP or calcium FLIPR assays; assay type: cell-based
Chain of ADRA2B - AG (P18089 whole entry): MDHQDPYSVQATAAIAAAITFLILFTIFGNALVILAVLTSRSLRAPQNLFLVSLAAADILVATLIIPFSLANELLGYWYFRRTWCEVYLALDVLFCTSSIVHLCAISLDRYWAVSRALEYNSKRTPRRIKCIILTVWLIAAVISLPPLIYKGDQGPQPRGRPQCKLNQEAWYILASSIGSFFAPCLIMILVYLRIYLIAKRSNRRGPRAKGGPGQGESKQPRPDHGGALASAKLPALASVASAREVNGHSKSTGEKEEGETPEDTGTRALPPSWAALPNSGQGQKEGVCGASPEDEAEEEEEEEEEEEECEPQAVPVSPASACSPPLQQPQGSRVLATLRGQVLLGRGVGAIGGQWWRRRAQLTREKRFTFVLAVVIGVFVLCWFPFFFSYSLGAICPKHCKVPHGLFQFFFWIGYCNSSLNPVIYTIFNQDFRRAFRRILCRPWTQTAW
Description: as §3

CC1CCCN1C(=O)c1nc(C(=O)NCC(C)(C)O)sc1-c1ccc(C(O)(C(F)(F)F)C(F)(F)F)c(Cl)c1Cl (stereo not drawn) [JNJ-61803534]
IC50 [1]: > 1.5 µM
mode of action on PXR [2]: possibly partial modulator
IC50 ([2]; agonist and antagonist mode): 0.34 µM
activity at 1 µM [3]: 107%
activity at 10 µM [3]: 104%
activity at 1 µM [4]: 97%
activity at 10 µM [4]: 95%
Caverage ([5]; 3 mg/kg BID): 702 nM
Ctrough ([5]; 3 mg/kg BID): 74 nM
Caverage ([5]; 10 mg/kg BID): 2032 nM
Ctrough ([5]; 10 mg/kg BID): 211 nM
Caverage ([5]; 30 mg/kg BID): 6909 nM
Ctrough ([5]; 30 mg/kg BID): 716 nM
Caverage ([5]; 60 mg/kg QD): 6909 nM
Ctrough ([5]; 60 mg/kg QD): 26 nM
Caverage ([5]; 100 mg/kg BID): 20321 nM
Ctrough ([5]; 100 mg/kg BID): 2106 nM
thymus finding [6]: increase in medium-sized thymocytes/mitoses
IC50 [7]: > 30 µM
inhibition at 1 µM [8]: < 10%
inhibition at 10 µM [8]: < 10%
EC50 ([9]; agonist): > 12.5 µM
IC50 ([9]; antagonist): > 12.5 µM
inhibition at 1 µM [10]: < 10%
inhibition at 10 µM [10]: < 10%
IC50 [11]: > 1.5 µM
activity at 1 µM [12]: 102%
activity at 10 µM [12]: 108%
EC50 ([13]; agonist): > 10 µM
IC50 ([13]; antagonist): > 10 µM
EC50 ([14]; agonist): > 12.5 µM
IC50 ([14]; antagonist): > 12.5 µM
activity at 1 µM [15]: 84%
activity at 10 µM [15]: 103%
activity at 1 µM [16]: 102%
activity at 10 µM [16]: 107%
IC50 [17]: > 1.5 µM
inhibition at 1 µM [18]: < 10%
inhibition at 10 µM [18]: < 10%
disease incidence at day 35 ([19]; 3 mg/kg BID): 100%
reduction of clinical arthritis scores (AUC) vs vehicle, efficacy % inhibition ([19]; 3 mg/kg BID oral): 30%
disease incidence at day 35 ([19]; 10 mg/kg BID): 89%
reduction of clinical arthritis scores (AUC) vs vehicle, efficacy % inhibition ([19]; 10 mg/kg BID oral): 44%
disease incidence at day 35 ([19]; 30 mg/kg BID): 80%
reduction of clinical arthritis scores (AUC) vs vehicle, efficacy % inhibition ([19]; 30 mg/kg BID oral): 66%
disease incidence at day 35 ([19]; 60 mg/kg QD): 100%
reduction of clinical arthritis scores (AUC) vs vehicle, efficacy % inhibition ([19]; 60 mg/kg QD oral, p > 0.05): 13%
disease incidence at day 35 ([19]; 100 mg/kg BID): 45%
reduction of clinical arthritis scores (AUC) vs vehicle, efficacy % inhibition ([19]; 100 mg/kg BID oral): 88%
inhibition of total histopathology score ([19]; 100 mg/kg, BID, oral): 94%
maximum inhibition for final arthritic score ([19]; 100 mg/kg, BID, oral): 88%
maximum inhibition of clinical score ([19]; mouse, in vivo): ~ 90%
EC50 ([20]; agonist): > 10 µM
IC50 ([20]; antagonist): > 10 µM
inhibition at 1 µM [21]: < 10%
inhibition at 10 µM [21]: 36.8%
EC50 ([22]; agonist): > 10 µM
IC50 ([22]; antagonist): > 10 µM
EC50 ([23]; agonist): > 10 µM
IC50 ([23]; antagonist): > 10 µM
IC50 [24]: > 1.5 µM
EC50 ([25]; agonist): > 12.5 µM
IC50 ([25]; antagonist): > 12.5 µM
